For 16 compounds, IC90 results are on record in patent US20250179066A1, “ZWITTERIONIC ANTIBACTERIAL COMPOUNDS” (Hoffmann-La Roche Inc., priority 2022, published 2025).

Counter-ions that a name gives are not always drawn.

This assay concerns Acinetobacter baumannii ATCC17961. Description: Antimicrobial susceptibility testing: 90% growth inhibitory concentration (IC90) determination. The assay is classed as cell-based. The following applies: Acinetobacter baumannii, ATCC17961, 16 h, 90% growth inhibitory concentration against Acinetobacter baumannii ATCC17961, Iso-Sensitest broth, OD 600 nm over 16 h; read-out: ATCC 17961 IC90. In outline: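 Twofold serial dilutions (e.g. 10 to 0.0195 μM final) in Iso-Sensitest broth inoculated at ~5×10^5 CFU/mL, incubated at 35±2° C. OD600 read every minute for 16 h; IC90 is the concentration inhibiting 90% of growth during logarithmic phase.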
`Cn1c(-c2cn(-c3ccc(NC4CCC4)cn3)nc2C(F)(F)F)cnc1C(=O)Nc1ccc(C(=O)N2CCN(C(=O)C3CC[N+](CC(=O)O)(CC4CNC4)CC3)CC2)c(Cl)c1` (stereo not shown) [Example 69, 2-[1-(azetidin-3-ylmethyl)-4-[4-[2-chloro-4-[[5-[1-[5-(cyclobutylamino)-2-pyridyl]-3-(trifluoromethyl)pyrazol-4-yl]-1-methyl-imidazole-2-carbonyl]amino]benzoyl]piperazine-1-carbonyl]piperidin-1-ium-1-yl]acetic acid. 1:1 formate]: the IC90 (in general, the point of the concentration-response curve where the effect stands at 90%) worked out at 790 nM.
Next, `Cn1c(-c2cn(-c3ccc(N)cn3)nc2C(F)(F)F)cnc1C(=O)Nc1ccc(C(=O)N2CCN(C(=O)[C@H](N)CC(=O)O)CC2)c(Cl)c1` [Example 85, (3R)-3-amino-4-[4-[4-[[5-[1-(5-amino-2-pyridyl)-3-(trifluoromethyl)pyrazol-4-yl]-1-methyl-imidazole-2-carbonyl]amino]-2-chloro-benzoyl]piperazino]-4-keto-butyric acid. 1:1 2,2,2-trifluoroacetic acid]: 1360 nM; `Cn1c(-c2cn(-c3ccc(N)cc3F)nc2C(F)(F)F)cnc1C(=O)Nc1ccc(C(=O)N2CCN(C(=O)C3CC[N+](CC(=O)O)(CC4CNC4)CC3)CC2)c(Cl)c1` (stereo not shown) [Example 17, 2-[4-[4-[4-[[5-[1-(4-amino-2-fluoro-phenyl)-3-(trifluoromethyl)pyrazol-4-yl]-1-methyl-imidazole-2-carbonyl]amino]-2-chloro-benzoyl]piperazine-1-carbonyl]-1-(azetidin-3-ylmethyl)piperidin-1-ium-1-yl]acetic acid. 1:1 2,2,2-trifluoroacetate]: 240 nM.
In the case of `CN(C)c1ccc(-n2cc(-c3cnc(C(=O)Nc4ccc(C(=O)N5CCN(C(=O)C6CC[N+](CC(=O)O)(CC7CNC7)CC6)CC5)c(Cl)c4)n3C)c(C(F)(F)F)n2)cn1` (stereo not shown) [Example 49, 2-[1-(azetidin-3-ylmethyl)-4-[4-[2-chloro-4-[[5-[1-[6-(dimethylamino)-3-pyridyl]-3-(trifluoromethyl)pyrazol-4-yl]-1-methyl-imidazole-2-carbonyl]amino]benzoyl]piperazine-1-carbonyl]piperidin-1-ium-1-yl]acetic acid. 1:1 2,2,2-trifluoroacetate], the IC90 stood at 520 nM.
For `Cn1c(-c2cn(-c3ccc(NC[C@H](O)CO)cc3F)nc2C(F)(F)F)cnc1C(=O)Nc1ccc(C(=O)N2CCN(C(=O)[C@H]3CC[N@+](CC(=O)O)(CC4CNC4)CC3)CC2)c(Cl)c1` [Example 137, cis-2-[1-(azetidin-3-ylmethyl)-4-[4-[2-chloro-4-[[5-[1-[4-[[(2S)-2,3-dihydroxypropyl]amino]-2-fluoro-phenyl]-3-(trifluoromethyl)pyrazol-4-yl]-1-methyl-imidazole-2-carbonyl]amino]benzoyl]piperazine-1-carbonyl]piperidin-1-ium-1-yl]acetic acid;formate] the value was 334 nM; for `Cn1c(-c2cn(-c3ccc4[nH]c(CCO)cc4n3)nc2C(F)(F)F)cnc1C(=O)Nc1ccc(C(=O)N2CCN(C(=O)[C@H]3CC[N@+](CC(=O)O)(CC4CNC4)CC3)CC2)c(Cl)c1` [Example 162, cis-2-[1-(azetidin-3-ylmethyl)-4-[4-[2-chloro-4-[[5-[1-[2-(2-hydroxyethyl)-1H-pyrrolo[3,2-b]pyridin-5-yl]-3-(trifluoromethyl)pyrazol-4-yl]-1-methyl-imidazole-2-carbonyl]amino]benzoyl]piperazine-1-carbonyl]piperidin-1-ium-1-yl]acetic acid;formate], 203 nM.
Take `Cn1c(-c2cn(-c3ccc4[nH]c(CCC(N)=O)cc4n3)nc2C(F)(F)F)cnc1C(=O)Nc1ccc(C(=O)N2CCN(C(=O)[C@H]3CC[N@@+](CCCN)(CC(=O)O)CC3)CC2)c(Cl)c1` [Example 99, cis-2-[4-[4-[4-[[5-[1-[2-(3-amino-3-oxo-propyl)-1H-pyrrolo[3,2-b]pyridin-5-yl]-3-(trifluoromethyl)pyrazol-4-yl]-1-methyl-imidazole-2-carbonyl]amino]-2-chloro-benzoyl]piperazine-1-carbonyl]-1-(3-aminopropyl)piperidin-1-ium-1-yl]acetic acid;2,2,2-trifluoroacetate]: the IC90 turned out to be 361 nM.
For `Cn1c(-c2cn(-c3ccc(CN)cn3)nc2C(F)(F)F)cnc1C(=O)Nc1ccc(C(=O)N2CCN(C(=O)C3CC[N+](CC(=O)O)(CC4CNC4)CC3)CC2)c(Cl)c1` (stereo not shown) [Example 21, 2-[4-[4-[4-[[5-[1-[5-(Aminomethyl)-2-pyridyl]-3-(trifluoromethyl)pyrazol-4-yl]-1-methyl-imidazole-2-carbonyl]amino]-2-chloro-benzoyl]piperazine-1-carbonyl]-1-(azetidin-3-ylmethyl)piperidin-1-ium-1-yl]acetic Acid.1:1 formic Acid.1:1 formate], the IC90 was 320 nM.
For `Cn1c(-c2cn(-c3ccc4[nH]c(CO)cc4n3)nc2C(F)(F)F)cnc1C(=O)Nc1ccc(C(=O)N2CCN(C(=O)N3CC[N+](CC(=O)O)(CC4CNC4)CC3)CC2)c(Cl)c1` [Example 144, 2-[1-(azetidin-3-ylmethyl)-4-[4-[2-chloro-4-[[1-methyl-5-[1-(2-methylol-1H-pyrrolo[3,2-b]pyridin-5-yl)-3-(trifluoromethyl)pyrazol-4-yl]imidazole-2-carbonyl]amino]benzoyl]piperazine-1-carbonyl]piperazin-1-ium-1-yl]acetic acid. 1:1 2,2,2-trifluoroacetate], the IC90 came to 269 nM.
In the case of `Cn1c(-c2cn(-c3ccc4c(cc(CO)n4CC#N)n3)nc2C(F)(F)F)cnc1C(=O)Nc1ccc(C(=O)N2CCN(C(=O)[C@H]3CC[N@+](CC(=O)O)(CC4CNC4)CC3)CC2)c(Cl)c1` [Example 169, cis-2-[1-(azetidin-3-ylmethyl)-4-[4-[2-chloro-4-[[5-[1-[1-(cyanomethyl)-2-methylol-pyrrolo[3,2-b]pyridin-5-yl]-3-(trifluoromethyl)pyrazol-4-yl]-1-methyl-imidazole-2-carbonyl]amino]benzoyl]piperazine-1-carbonyl]piperidin-1-ium-1-yl]acetic acid. 1:1 2,2,2-trifluoroacetate], the IC90 turned out to be 466 nM.
Consider `Cn1c(-c2cn(-c3cc4[nH]ccc4cn3)nc2C(F)(F)F)cnc1C(=O)Nc1ccc(C(=O)N2CCN(C(=O)[C@H]3CC[N@+](CC(=O)O)(CC4CNC4)CC3)CC2)c(Cl)c1` [Example 14, cis-2-[1-(azetidin-3-ylmethyl)-4-[4-[2-chloro-4-[[1-methyl-5-[1-(1H-pyrrolo[3,2-c]pyridin-6-yl)-3-(trifluoromethyl)pyrazol-4-yl]imidazole-2-carbonyl]amino]benzoyl]piperazine-1-carbonyl]piperidin-1-ium-1-yl]acetic acid. 1:1 2,2,2-trifluoroacetate], for which the IC90 was 200 nM.
`Cn1c(-c2cn(-c3ccc(NCc4ccccn4)cn3)nc2C(F)(F)F)cnc1C(=O)Nc1ccc(C(=O)N2CCN(C(=O)C3CC[N+](CC(=O)O)(CC4CNC4)CC3)CC2)c(Cl)c1` (stereo not shown) [Example 23, 2-[1-(azetidin-3-ylmethyl)-4-[4-[2-chloro-4-[[1-methyl-5-[1-[5-(2-pyridylmethylamino)-2-pyridyl]-3-(trifluoromethyl)pyrazol-4-yl]imidazole-2-carbonyl]amino]benzoyl]piperazine-1-carbonyl]piperidin-1-ium-1-yl]acetic acid. 1:1 2,2,2-trifluoroacetate]: the IC90 turned out to be 340 nM.
Regarding `Cn1c(-c2cn(-c3ccc4[nH]ncc4n3)nc2C(F)(F)F)cnc1C(=O)Nc1ccc(C(=O)N2CCN(C(=O)[C@H]3CC[N@+](CC(=O)O)(CC4CNC4)CC3)CC2)c(Cl)c1` [Example 42, cis-2-[1-(azetidin-3-ylmethyl)-4-[4-[2-chloro-4-[[1-methyl-5-[1-(1H-pyrazolo[4,3-b]pyridin-5-yl)-3-(trifluoromethyl)pyrazol-4-yl]imidazole-2-carbonyl]amino]benzoyl]piperazine-1-carbonyl]piperidin-1-ium-1-yl]acetic acid. 1:1 2,2,2-trifluoroacetate], the IC90 was determined as 440 nM.
For `Cn1c(-c2cn(-c3cc4[nH]cc(C(N)=O)c4cn3)nc2C(F)(F)F)cnc1C(=O)Nc1ccc(C(=O)N2CCN(C(=O)[C@H]3CC[N@+](CC(=O)O)(CC4CNC4)CC3)CC2)c(Cl)c1` [Example 157, cis-2-[1-(azetidin-3-ylmethyl)-4-[4-[4-[[5-[1-(3-carbamoyl-1H-pyrrolo[3,2-c]pyridin-6-yl)-3-(trifluoromethyl)pyrazol-4-yl]-1-methyl-imidazole-2-carbonyl]amino]-2-chloro-benzoyl]piperazine-1-carbonyl]piperidin-1-ium-1-yl]acetic acid. 1:1 2,2,2-trifluoroacetate], the concentration for an effect of 90% (IC90) is 368 nM.
With `CNc1ccnc(-n2cc(-c3cnc(C(=O)Nc4ccc(C(=O)N5CCN(C(=O)C6CC[N+](CC(=O)O)(CC7CNC7)CC6)CC5)c(Cl)c4)n3C)c(C(F)(F)F)n2)c1` (stereo not shown) [Example 52, 2-[1-(azetidin-3-ylmethyl)-4-[4-[2-chloro-4-[[1-methyl-5-[1-[4-(methylamino)-2-pyridyl]-3-(trifluoromethyl)pyrazol-4-yl]imidazole-2-carbonyl]amino]benzoyl]piperazine-1-carbonyl]piperidin-1-ium-1-yl]acetic acid. 1:1 2,2,2-trifluoroacetate], the IC90 turned out to be 530 nM.
Take `Cn1c(-c2cn(-c3ccc(O)cc3F)nc2C(F)(F)F)cnc1C(=O)Nc1ccc(C(=O)N2CCN(C(=O)[C@H]3CC[N@+](CC(=O)O)(CC4CNC4)CC3)CC2)c(Cl)c1` [Example 163, cis-2-[1-(azetidin-3-ylmethyl)-4-[4-[2-chloro-4-[[5-[1-(2-fluoro-4-hydroxy-phenyl)-3-(trifluoromethyl)pyrazol-4-yl]-1-methyl-imidazole-3-carbonyl]amino]benzoyl]piperazine-1-carbonyl]piperidin-1-ium-1-yl]acetic acid. 1:1 2,2,2-trifluoroacetate]: the IC90 was 190 nM.
